Data reported in patent publication US8183239B2, “Substituted piperazines and piperidines as modulators of the neuropeptide Y2 receptor” (Janssen Pharmaceutica NV, priority 2005, dated 2012).

Target: T1, Y2 receptors (Homo sapiens, UniProt P49146)
T1 construct: endogenous in cells; host or cells: KAN-Ts cells (membranes)
T1 sequence (P49146 1-381): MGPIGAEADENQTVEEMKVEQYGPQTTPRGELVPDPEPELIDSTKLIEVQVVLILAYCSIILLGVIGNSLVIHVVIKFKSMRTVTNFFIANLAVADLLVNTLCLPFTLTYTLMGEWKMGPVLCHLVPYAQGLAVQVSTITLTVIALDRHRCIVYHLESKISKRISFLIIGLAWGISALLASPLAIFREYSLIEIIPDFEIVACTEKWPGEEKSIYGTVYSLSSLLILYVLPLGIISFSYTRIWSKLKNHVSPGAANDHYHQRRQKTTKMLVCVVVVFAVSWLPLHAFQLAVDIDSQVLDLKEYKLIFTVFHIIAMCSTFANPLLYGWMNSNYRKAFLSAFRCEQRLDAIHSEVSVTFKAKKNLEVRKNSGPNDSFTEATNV
Experiment: [35S]GTPγS binding assay in KAN-Ts cells (inhibition of PYY-stimulated binding)
Assay type: biochemical
Conditions: KAN-Ts membranes
Procedure: [^35S] GTPγS binding assay in KAN-Ts cells
Membranes from KAN-Ts cells were prepared as described above. Membranes were thawed on ice and diluted in 50 mM Tris-HCl buffer, pH 7.4 containing 10 mM MgCl2, 1 mM EDTA, 100 mM NaCl, […], 0.25% BSA. Assay mixture ([…]) were preincubated with compounds for 30 min at rt. Then, […] of [^35S]GTPγS in assay buffer was added to a final concentration of 200 pM and the assay mixtures were incubated for 1 h at rt. Reactions were terminated by rapid filtration thought GF/C filters. Filters were washed twice with ice cold 50 mM Tris-HCl, pH 7.4 containing 10 mM MgCl2. Basal [^35S]GTPγS was measured in the absence of compounds. In initial experiments, nonspecific binding was measured in the presence of […]. This nonspecific binding never exceeded 10% of basal binding and was thus not subtracted from experimental data. Stimulation of [^35S]GTPγS is presented as percentage over basal and was calculated as one hundred times the difference between stimulated and basal binding (in cpm). […] EC50 (concentration of compound at which 50% of its own maximal stimulation is obtained) and IC50 (concentration of its own maximal inhibition of PYY-stimulated [^35S]GTPγS binding is obtained) were derived from the curves. IC50 values were corrected as follows: corrected IC50 (IC50corr)=IC50/(1+[PYY]/EC50 (PYY)) and pIC50corr=−log IC50corr.

| SMILES | functional behaviour in [35S]GTPγS assay |
| --- | --- |
| CCNC(=O)C(c1ccccc1)C1CCN(c2ccc(NC(=O)Nc3c(C)noc3C)cc2F)CC1 (stereo not drawn) [Example 10, 2-(1-{4-[3-(3,5-Dimethyl-isoxazol-4-yl)-ureido]-2-fluoro-phenyl}-piperidin-4-yl)-N-ethyl-2-phenyl-acetamide] | antagonist |

Target: T1, Y2 receptors
Experiment: Radioligand binding assay ([125I]PYY, KAN-Ts cell membranes)
Conditions: Table 1, [125I]PYY 80 pM, average of results, read-out: IC50
Procedure, shortened: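 IC50 values are means of three to eight experiments run in duplicate, fitted sigmoidally against specific binding (defined by […]). Competition used 80 pM [^125I]PYY for 1 h at room temperature on KAN-Ts membranes carrying native Y2, with filtration and scintillation counting.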

| SMILES | IC50 [nM] |
| --- | --- |
| CCNC(=O)C(c1ccccc1)C1CCN(c2ccc(NC(=O)Nc3c(C)noc3C)cc2F)CC1 (stereo not drawn) [Example 10, 2-(1-{4-[3-(3,5-Dimethyl-isoxazol-4-yl)-ureido]-2-fluoro-phenyl}-piperidin-4-yl)-N-ethyl-2-phenyl-acetamide] | 15 |

Same assay, conditions: Table 2, [125I]PYY 80 pM, average of results, read-out: IC50

| SMILES | IC50 [nM] |
| --- | --- |
| CCC(CC)C(=O)Nc1ccc(N2CC3CC2CN3C(C(=O)N(CC)CC)c2ccccc2)c(F)c1 (stereo not drawn) [Example 272, N-{4-[5-(Diethylcarbamoyl-phenyl-methyl)-2,5-diaza-bicyclo[2.2.1]heptyl]-3-fluoro-phenyl}-2-ethyl-butyramide] | 4000 |
| CCC(CC)C(=O)Nc1ccc(N2CCN(Cc3cc(F)cc(F)c3)C(C(=O)OC)C2)c(F)c1 (stereo not drawn) [Example 273, 1-(3,5-Difluoro-benzyl)-4-[4-(2-ethyl-butyrylamino)-2-fluoro-phenyl]-piperazine-2-carboxylic acid methyl ester] | 7000 |
| CCN(CC)C(=O)C(c1ccccc1)N1CCN(c2ccc(N3CCCC3=O)cc2F)CC1 (stereo not drawn) [Example 274, N,N-Diethyl-2-{4-[2-fluoro-4-(2-oxo-pyrrolidin-1-yl)-phenyl]-piperazin-1-yl}-2-phenyl-acetamide] | 1600 |
| CCN(CC)C(=O)C(c1ccccc1)N1CCN(c2ccc(CC(=O)N3CCCCC3c3ccccc3)cc2F)CC1 (stereo not drawn) [Example 275, N,N-Diethyl-2-(4-{2-fluoro-4-[2-oxo-2-(2-phenyl-piperidin-1-yl)-ethyl]-phenyl}-piperazin-1-yl)-2-phenyl-acetamide] | 142 |
| CCN(CC)C(=O)C(c1ccccc1)N1CCN(c2ccc(CC(=O)N3CCCC3c3ccccc3)cc2F)CC1 (stereo not drawn) [Example 276, N,N-Diethyl-2-(4-{2-fluoro-4-[2-oxo-2-(2-phenyl-pyrrolidin-1-yl)-ethyl]-phenyl}-piperazin-1-yl)-2-phenyl-acetamide] | 200 |
| CCC1CCCCN1C(=O)Cc1ccc(N2CCN(C(C(=O)N(CC)CC)c3ccccc3)CC2)c(F)c1 (stereo not drawn) [Example 277, N,N-Diethyl-2-(4-{4-[2-(2-ethyl-piperidin-1-yl)-2-oxo-ethyl]-2-fluoro-phenyl}-piperazin-1-yl)-2-phenyl-acetamide] | 320 |
| CCN(CC)C(=O)C(c1ccccc1)N1CCN(c2ccc(CC(=O)N(C)Cc3ccco3)cc2F)CC1 (stereo not drawn) [Example 278, N,N-Diethyl-2-(4-{2-fluoro-4-[(furan-2-ylmethyl-methyl-carbamoyl)-methyl]-phenyl}-piperazin-1-yl)-2-phenyl-acetamide] | 320 |
| CCN(CC)C(=O)C(c1ccccc1)N1CCN(c2ccc(CC(=O)N3C(C)CCC3C)cc2F)CC1 (stereo not drawn) [Example 279, 2-(4-{4-[2-(2,5-Dimethyl-pyrrolidin-1-yl)-2-oxo-ethyl]-2-fluoro-phenyl}-piperazin-1-yl)-N,N-diethyl-2-phenyl-acetamide] | 540 |
| CCN(CC)C(=O)C(c1ccccc1)N1CCN(c2ccc(CC(=O)N3CCCCC3c3cccnc3)cc2F)CC1 (stereo not drawn) [Example 280, N,N-Diethyl-2-(4-{2-fluoro-4-[2-oxo-2-(3,4,5,6-tetrahydro-2H-[2,3′]bipyridinyl-1-yl)-ethyl]-phenyl}-piperazin-1-yl)-2-phenyl-acetamide] | 570 |
| CCC(CC)NC(=O)Cc1ccc(N2CCN(C(C(=O)N(CC)CC)c3ccccc3)CC2)c(F)c1 (stereo not drawn) [Example 281, N,N-Diethyl-2-(4-{4-[(1-ethyl-propylcarbamoyl)-methyl]-2-fluoro-phenyl}-piperazin-1-yl)-2-phenyl-acetamide] | 560 |
| CCN(CC)C(=O)C(c1ccccc1)N1CCN(c2ccc(CC(=O)N3CCCC3C)cc2F)CC1 (stereo not drawn) [Example 282, N,N-Diethyl-2-(4-{2-fluoro-4-[2-(2-methyl-pyrrolidin-1-yl)-2-oxo-ethyl]-phenyl}-piperazin-1-yl)-2-phenyl-acetamide] | 940 |
| CCN(CC)C(=O)C(c1ccccc1)N1CCN(c2ccc(CC(=O)N3CCCC3)cc2F)CC1 (stereo not drawn) [Example 283, N,N-Diethyl-2-{4-[2-fluoro-4-(2-oxo-2-pyrrolidin-1-yl-ethyl)-phenyl]-piperazin-1-yl}-2-phenyl-acetamide] | 1200 |
| CCN(CC)C(=O)Cc1ccc(N2CCN(C(C(=O)N(CC)CC)c3ccccc3)CC2)c(F)c1 (stereo not drawn) [Example 284] | 1500 |
| CCN(CC)C(=O)C(c1ccccc1)N1CCN(c2ccc(CC(=O)NCc3ccccc3)cc2F)CC1 (stereo not drawn) [Example 285] | 1900 |
| CCN(CC)C(=O)C(c1ccccc1)N1CCN(c2ccc(CC(=O)N(C)Cc3ccccc3)cc2F)CC1 (stereo not drawn) [Example 286] | 2100 |
| CCN(Cc1ccccc1)C(=O)Cc1ccc(N2CCN(C(C(=O)N(CC)CC)c3ccccc3)CC2)c(F)c1 (stereo not drawn) [Example 287] | 2200 |
| CCC(CC)NC(=O)Cc1ccc(N2CCN(C(C(=O)N3CCC(F)(F)C3)c3ccccc3)CC2)c(F)c1 (stereo not drawn) [Example 288, 2-(4-{4-[2-(3,3-Difluoro-pyrrolidin-1-yl)-2-oxo-1-phenyl-ethyl]-piperazin-1-yl}-3-fluoro-phenyl)-N-(1-ethyl-propyl)-acetamide] | 2100 |
| CCN(CC)C(=O)Cc1ccc(N2CCN(C(C(=O)N3CCC(F)(F)C3)c3ccccc3)CC2)c(F)c1 (stereo not drawn) [Example 289, 2-(4-{4-[2-(3,3-Difluoro-pyrrolidin-1-yl)-2-oxo-1-phenyl-ethyl]-piperazin-1-yl}-3-fluoro-phenyl)-N,N-diethyl-acetamide] | 3450 |
| CCNC(=O)Cc1ccc(N2CCN(C(C(=O)N(CC)CC)c3ccccc3)CC2)c(F)c1 (stereo not drawn) [Example 290, N,N-Diethyl-2-[4-(4-ethylcarbamoylmethyl-2-fluoro-phenyl)-piperazin-1-yl]-2-phenyl-acetamide] | 4300 |
| CCN(CC)C(=O)C(c1ccccc1)N1CCN(c2ccc(CC(=O)NC3CCCC3)cc2F)CC1 (stereo not drawn) [Example 291, 2-[4-(4-Cyclopentylcarbamoylmethyl-2-fluoro-phenyl)-piperazin-1-yl]-N,N-diethyl-2-phenyl-acetamide] | 8700 |
| CCC(CC)C(=O)Nc1ccc(N2CCN(C(C(=O)N(C)C)c3ccccc3)CC2)c(F)c1 (stereo not drawn) [Example 292, N-{4-[4-(Dimethylcarbamoyl-phenyl-methyl)-piperazin-1-yl]-3-fluoro-phenyl}-2-ethyl-butyramide] | 104 |

Test system: rats
Experiment: not given
Conditions: icv administration; cited from earlier work

| SMILES | ethanol self-administration |
| --- | --- |
| N=C(N)NCCC[C@H](NC(=O)CC1(CC(=O)N2CCN(C3c4ccccc4NC(=O)c4ccccc43)CC2)CCCC1)C(=O)NCCn1c(=O)n(-c2ccccc2)n(-c2ccccc2)c1=O (stereo partly drawn) [BIIE0246] | dose dependently reduced ethanol self-administration |
